Results reported in article PMC5259791 (Scientific Reports, 2017).

How the values were obtained:
[1] = biological target: T1, PPARγ1 (Homo sapiens, UniProt P37231); experiment: PPRE-luciferase transactivation in HEK293 cells stably expressing exogenous PPARγ; assay type: cell-based
T1 construct: from a transfected PCDNA-3 vector carrying a complete PPARγ cDNA; expressed in transfected cells
T1 sequence (P37231 1-477 isoform P37231-2): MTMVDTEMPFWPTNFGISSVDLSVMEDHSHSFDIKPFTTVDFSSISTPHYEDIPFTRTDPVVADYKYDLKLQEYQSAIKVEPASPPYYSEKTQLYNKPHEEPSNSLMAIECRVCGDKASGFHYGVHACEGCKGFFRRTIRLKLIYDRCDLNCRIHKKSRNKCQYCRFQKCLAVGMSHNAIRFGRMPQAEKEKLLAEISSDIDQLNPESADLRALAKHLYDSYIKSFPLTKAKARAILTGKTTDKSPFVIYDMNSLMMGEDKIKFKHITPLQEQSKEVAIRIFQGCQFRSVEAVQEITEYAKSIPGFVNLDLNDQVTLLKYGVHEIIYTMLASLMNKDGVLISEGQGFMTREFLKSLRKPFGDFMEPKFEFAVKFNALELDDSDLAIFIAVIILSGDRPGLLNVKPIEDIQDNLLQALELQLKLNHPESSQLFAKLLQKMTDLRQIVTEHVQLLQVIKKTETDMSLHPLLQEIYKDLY
Description: These cells were selected as they express a fixed and known amount of PPARγ, so that the differences in luciferase activity can be ascribed to the different ligand used. […] (b) Human HEK293T cells were co-transfected with the PPRE-luciferase reporter gene and the wild-type PPARγ1 or its mutant version (C285A).
HEK293 cells that stably express an exogenous Flag-tagged PPARγ from a transfected PCDNA-3 vector carrying a complete PPARγ cDNA were used for transfection experiments. The PPRE-Luc plasmid contains a luciferase reporter gene under the transcriptional control of three copies of the PPRE (Peroxisome Proliferator Response Element) derived from Acyl-CoA oxidase gene fused upstream to the herpes simplex thymidine kinase (TK) promoter, as described. […] Transient transfection assays were carried out as described in ref. [44]. […] In this case, the experiments were carried out into basal HEK293T cells and the RSV-β-Gal plasmid was used as control for transfection efficiency. […] The wild type and mutant PPARγ containing expression vectors were kindly provided by Dott. Takuma Shiraki. At least three independent experiments were performed for each transfection carried out in duplicate. Luciferase activity was normalized to β-galactosidase activity and reported as fold-induction.

[2] = biological target: T2, PPARγ (Homo sapiens, UniProt P37231); experiment: SPR on immobilized PPARγ; assay type: binding
T2 sequence (P37231 195-477 isoform P37231-2 limits assumed): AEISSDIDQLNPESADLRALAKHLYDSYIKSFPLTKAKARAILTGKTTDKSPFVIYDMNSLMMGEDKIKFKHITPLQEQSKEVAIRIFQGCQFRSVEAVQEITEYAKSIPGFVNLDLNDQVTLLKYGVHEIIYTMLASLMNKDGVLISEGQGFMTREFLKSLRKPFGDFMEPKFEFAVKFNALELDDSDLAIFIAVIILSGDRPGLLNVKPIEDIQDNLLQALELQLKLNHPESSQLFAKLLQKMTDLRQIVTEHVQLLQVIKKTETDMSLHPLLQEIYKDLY
Procedure: ; SPR analysis was also performed using the immobilized PPARγ LBD to evaluate if this protein portion was involved in the interaction with 1; […]. Conversely, no affinity of the diterpene towards Hsp60 was observed (Fig. 2c).
To assess the potential of 1 to act as a PPARγ modulator, we investigated the structural and functional aspects of its interaction with this nuclear receptor. To define the structural features required by 1 for an efficient interaction with PPARγ, as a first step, we performed SPR analyses using some diterpenes displaying structural relationship with 1 (compounds 2–9, Fig. 1). […]. SPR analyses were carried out on a BIACORE 3000 instrument (GE-Healthcare). PPARα, PPARγ, PPARδ and HSP60 surfaces were prepared on research−grade CM5 sensor chips (GE Healthcare). Proteins (100 μg/ml in 10 mM CH3COONa, pH 5.0) were immobilized using a standard amine−coupling protocol, to obtain densities of 3–5 kRU. Testing compounds were dissolved in 100% DMSO to obtain 4 mM solutions, and then diluted in PBS containing variable amounts of DMSO, achieving a final DMSO concentration of 0.1%. […]. SPR experiments and data elaboration were carried out as reported elsewhere.

[3] = system: HT29 cells; experiment: Western blot of proliferation/apoptosis markers in HT29 cells; assay type: cell-based
Description: In addition, the expression of two components of the apoptotic pathway, such as caspase 3 and its substrate Poly (ADP-ribose) polymerase (PARP), was affected resulting in a reduction of the pro-caspase 3 precursor and an increase of the PARP cleaved form. Pre-treatment with GW9662 counteracted both the effects (Fig. 7b,c).
The graphs in (a–c) represent the mean ± SD of the protein/β-actin ratio from two independent experiments for p21^waf1/cip1, Caspase-3 precursor and cleaved PARP proteins, respectively. The graph in (d) represents the mean ± SD of pAKT/AKT ratio from two independent experiments.
Treated and untreated cells were lysed in Ripa buffer (150 mM NaCl, 50 mM Tris-HCl, pH 7.6, 10 mM EDTA, 1% NP-40) containing also a protease inhibitors cocktail and then centrifugated at 17,000 RCF for 10 min, at 4 °C. Supernatant containing total proteins was quantified and 80 μg of each sample were separated on 12% SDS-PAGE. Western blotting assays were carried out] Protein extracts from treated and untreated cells were obtained, quantified and analyzed by Western blot as reported.

[4] = exposure for 6 h, compound alone

For `C=C1C(=O)C23CCC4C(C(=O)OC)CC(O)CC4(C)C2CCC1C3` (centres unmarked) [Compound 1, 15-ketoatractyligenin methyl ester], the “effect of detergent on transactivation activity profile” value ([1]; 0.001% Tween 20 in the medium) was “not find any variation in the bell-shaped activity profile”, the “concentration at peak of luciferase activity” value ([1]; 24 h treatment, HEK293 stably expressing PPARγ) was 1 µM and the “transactivation activity lower than Rosiglitazone” value ([1]; 24 h treatment, relative to Rosiglitazone) was “about 40%”. The “type of PPARγ agonism” value ([1]; transactivation assay) was “partial agonist”, the “dissociation of 1/PPARγ complex” value ([2]; SPR, compared with 1/PPARα complex) was “required longer times and was incomplete” and the Kd ([2]; SPR, immobilized PPARγ) was 25.8 ± 5.5 nM. For the same molecule, the “interaction with PPARγ pre-incubated with 1” value ([2]; protein immobilized after 2 h incubation with 5-fold molar excess of 1) was “did not interact”, the “p21^waf1/cip1 levels” value [3, 4] was “sharply increased” and the p-AKT levels [3, 4] was “robust reduction”. For the same molecule, the PARP cleaved form ([3]; exposure for 48 h) was “increase” and the “pro-caspase 3 precursor expression” value ([3]; exposure for 48 h) was “reduction”.
